Measurements published in PMC11672294, “The Antipsychotic Drug Aripiprazole Suppresses Colorectal Cancer by Targeting LAMP2a to Induce RNH1/miR‐99a/mTOR‐Mediated Autophagy and Apoptosis” (Advanced Science, 2024).
Counter-ions that a name gives are not always drawn. Like-named read-outs stand apart in the source and are kept apart here.

Tested on: HT29
Conditions: 72 h, relative to DMSO, 10 µM
From the text: To investigate the key signaling pathways and biological processes involved in CRC progression, we analyzed the National Center for Biotechnology Information Gene Expression Omnibus (GEO) dataset GSE115313, which included 42 CRC and paired normal tissues (Figure 1A). […] Next, we performed an Annexin V‐fluorescein isothiocyanate (FITC)/propidium iodide (PI) staining assay to determine the effect of aripiprazole on apoptosis in CRC cells. […] A) Principal component analysis of GEO dataset (GSE115313), which includes 42 CRC and paired normal tissues. B) Gene Ontology pathway analysis of the DEPs between CRC and paired normal tissues. […] D) Schematic diagram for identifying anticancer drugs amongst an US Food and Drug Administration‐approved small‐molecule library (616 compounds) using WST‐1 assay. E) HT29 cells were treated with the 616 drugs (10 µM) individually or with dimethyl sulfoxide for 72 h, followed by WST‐1 assay. […] J) Mice bearing HT29‐derived tumor xenografts were intragastrically administered with aripiprazole (10 or 20 mg kg^−1) once every 2 d, n = 6 mice/group. […] Bars, SD; ^* p < 0.05; ^** p < 0.01; ^*** p < 0.001; ns, no significant difference. The WST‐1 Cell Proliferation and Cytotoxicity Assay Kit (Beyotime Biotechnology, Shanghai, China) was used to measure cell viability, as described previously.^[ [10] ^] CRC cells were seeded into 96‐well plates and treated with different drug concentrations. Following that, WST‐1 was added to the plate and incubated with the cells for 2 h, at 37 °C. Absorbance at the wavelength of 450 nm was measured using an automated microplate spectrophotometer (BioTek Instruments, Winooski, VT, USA).

## CO/N=C(\C(=O)N[C@@H]1C(=O)N2C(C(=O)OCOC(=O)C(C)(C)C)=C(/C=C\c3scnc3C)CS[C@H]12)c1csc(N)n1 [Cefditoren Pivoxil]
  Relative cell viability (%): 66.53%

## Cc1ccc(-c2cc(C(F)(F)F)nn2-c2ccc(S(N)(=O)=O)cc2)cc1 [Celecoxib]
  Relative cell viability (%): 69.63%

## CCS(=O)(=O)N1CCN(c2ccc(Nc3ncc(C(N)=O)c(NC4CC4)n3)cc2)CC1 [Cerdulatinib (PRT062070, PRT2070)]
  Relative cell viability (%): 36.75%

## CCCCCCCCCCCCCCCC[N+](C)(C)C [Cetrimonium Bromide (CTAB)]
  Relative cell viability (%): 18.48%

## CCCCCCCCCCCCCCCC[n+]1ccccc1 [Cetylpyridinium Chloride]
  Relative cell viability (%): 5.758%

## C[C@H](CCC(=O)O)[C@H]1CC[C@H]2[C@@H]3[C@H](O)C[C@@H]4C[C@H](O)CC[C@]4(C)[C@H]3CC[C@]12C [Chenodeoxycholic Acid]
  Relative cell viability (%): 60.17%

## [H]/N=C(\N/C(=N/[H])NCCCCCCNC(=N)NC(=N)Nc1ccc(Cl)cc1)Nc1ccc(Cl)cc1 [Chlorhexidine HCl]
  Relative cell viability (%): 28.64%

## CN1C(=O)CCS(=O)(=O)C1c1ccc(Cl)cc1 (centres unmarked) [Chlormezanone]
  Relative cell viability (%): 142.8%

## Cc1cc(O)ccc1Cl [Chlorocresol]
  Relative cell viability (%): 65.76%

## Oc1c(Cl)cc(Cl)c2cccnc12 [Chloroxine]
  Relative cell viability (%): 69.07%

## CN(C)CCC(c1ccc(Cl)cc1)c1ccccn1 (centres unmarked) [Chlorpheniramine Maleate]
  Relative cell viability (%): 102.1%

## CN(C)CCCN1c2ccccc2Sc2ccc(Cl)cc21 [Chlorpromazine HCl]
  Relative cell viability (%): 93.71%

## CCCNC(=O)NS(=O)(=O)c1ccc(Cl)cc1 [Chlorpropamide]
  Relative cell viability (%): 79.39%

## CN(C)CC/C=C1/c2ccccc2Sc2ccc(Cl)cc21 [Chlorprothixene]
  Relative cell viability (%): 28.39%

## Cc1ccc2c(Cl)cc(Cl)c(O)c2n1 [Chlorquinaldol]
  Relative cell viability (%): 41.21%

## C[N+](C)(C)CCO [Choline Chloride]
  Relative cell viability (%): 79.39%

## O=C(O)c1cc(=O)c2ccccc2o1 [Chromocarb]
  Relative cell viability (%): 81.21%

## CCOC(=O)[C@H](CCc1ccccc1)N[C@H]1CCCN2CCC[C@@H](C(=O)O)N2C1=O [Cilazapril Monohydrate]
  Relative cell viability (%): 112%

## CC(C)[C@H]1C(=O)N[C@@H](CCCN=C(N)N)C(=O)NCC(=O)N[C@@H](CC(=O)O)C(=O)N[C@H](Cc2ccccc2)C(=O)N1C [Cilengitide]
  Relative cell viability (%): 61.11%

## COCCOC(=O)C1=C(C)NC(C)=C(C(=O)OC/C=C/c2ccccc2)C1c1cccc([N+](=O)[O-])c1 (centres unmarked) [Cilnidipine]
  Relative cell viability (%): 69.63%

## O=C1CCc2cc(OCCCCc3nnnn3C3CCCCC3)ccc2N1 [Cilostazol]
  Relative cell viability (%): 80.53%

## CN/C(=N/CCSCc1nc[nH]c1C)NC#N [Cimetidine]
  Relative cell viability (%): 97.03%

## C[C@@H](NCCCc1cccc(C(F)(F)F)c1)c1cccc2ccccc12 [Cinacalcet HCl]
  Relative cell viability (%): 2.648%

## O=C(O)c1cc(-c2ccccc2)nc2ccccc12 [Cinchophen]
  Relative cell viability (%): 89.39%

## COc1cc(/C=C/C(=O)N2CCN(CC(=O)N3CCCC3)CC2)cc(OC)c1OC [Cinepazide maleate]
  Relative cell viability (%): 86.89%

## CC(C)(Oc1ccc(C2CC2(Cl)Cl)cc1)C(=O)O (centres unmarked) [Ciprofibrate]
  Relative cell viability (%): 34.47%

## COc1ccc(C[C@@H]2c3cc(OC)c(OC)cc3CC[N@+]2(C)CCC(=O)OCCCCCOC(=O)CC[N@@+]2(C)CCc3cc(OC)c(OC)cc3[C@H]2Cc2ccc(OC)c(OC)c2)cc1OC [Cisatracurium Besylate]
Relative cell viability (%)
  Relative cell viability (%): 127.3%

## CN1CCC[C@@H]1CCO[C@](C)(c1ccccc1)c1ccc(Cl)cc1 [Clemastine Fumarate]
  Relative cell viability (%): 16.95%

## CCCC(=O)OCOC(=O)C1=C(C)NC(C)=C(C(=O)OC)C1c1cccc(Cl)c1Cl (centres unmarked) [Clevidipine Butyrate]
  Relative cell viability (%): 112%

## Cc1cn([C@H]2O[C@@H](CO)[C@H](O)[C@H]2F)c(=O)[nH]c1=O [Clevudine]
  Relative cell viability (%): 97.09%

## CC(C)(C)C(=O)C(Oc1ccc(Cl)cc1)n1ccnc1 (centres unmarked) [Climbazole]
  Relative cell viability (%): 83.94%

## CCCCCCCCCCCCCCCC(=O)O[C@@H]1[C@@H](O)[C@@H](O)[C@@H]([C@H](NC(=O)[C@@H]2C[C@@H](CCC)CN2C)[C@H](C)Cl)O[C@@H]1SC [Clindamycin palmitate HCl]
  Relative cell viability (%): 40.29%

## Nc1nc(Cl)nc2c1ncn2[C@@H]1O[C@H](CO)[C@@H](O)[C@@H]1F [Clofarabine]
  Relative cell viability (%): 43.15%

## CC(C)(Oc1ccc(Cl)cc1)C(=O)O [Clofibric Acid]
  Relative cell viability (%): 90.303%

## Nc1cc(C(Cl)=C(Cl)Cl)c(S(N)(=O)=O)cc1S(N)(=O)=O [Clorsulon]
  Relative cell viability (%): 49.03%

## CC(C)c1nc(CN(C)C(=O)N[C@@H](CCN2CCOCC2)C(=O)N[C@H](CC[C@H](Cc2ccccc2)NC(=O)OCc2cncs2)Cc2ccccc2)cs1 [Cobicistat (GS-9350)]
  Relative cell viability (%): 63.59%

## Cc1nc2c([nH]1)-c1ccccc1N(C(=O)c1ccc(NC(=O)c3ccccc3-c3ccccc3)cc1)CC2 [Conivaptan HCl]
  Relative cell viability (%): 109%

## O=c1ccc2ccccc2o1 [Coumarin]
  Relative cell viability (%): 71.21%

## CC1(COc2ccc3c(c2)ncn3-c2ccc3cccc(N4CCC(N)CC4)c3n2)COC1 [Crenolanib (CP-868596)]
  Relative cell viability (%): 11.17%

## CN(C)c1ccc(C(=C2C=CC(=[N+](C)C)C=C2)c2ccc(N(C)C)cc2)cc1 [Crystal Violet]
  Relative cell viability (%): 4.52%

## COc1cc(/C=C/C(=O)CC(=O)/C=C/c2ccc(O)c(OC)c2)ccc1O [Curcumin]
  Relative cell viability (%): 46.19%

## CC1CC(OC(=O)C(O)c2ccccc2)CC(C)(C)C1 (centres unmarked) [Cyclandelate]
  Relative cell viability (%): 65.76%

## CN(C)CCC=C1c2ccccc2C=Cc2ccccc21 [Cyclobenzaprine HCl]
  Relative cell viability (%): 39.39%

## O=P1(N(CCCl)CCCl)NCCCO1 (centres unmarked) [Cyclophosphamide Monohydrate]
  Relative cell viability (%): 130.7%

## CN1CCC(=C2c3ccccc3C=Cc3ccccc32)CC1 [Cyproheptadine HCl]
  Relative cell viability (%): 44.58%

## CC(=O)O[C@]1(C(C)=O)CC[C@H]2[C@@H]3C=C(Cl)C4=CC(=O)[C@@H]5C[C@@H]5[C@]4(C)[C@H]3CC[C@@]21C [Cyproterone Acetate]
  Relative cell viability (%): 132.9%

## Nc1nc(N)nc(NC2CC2)n1 [Cyromazine]
  Relative cell viability (%): 68.48%

## NCCS [Cysteamine HCl]
  Relative cell viability (%): 89.39%

## CC(C)(CO)[C@@H](O)C(=O)NCCCO [D panthenol]
  Relative cell viability (%): 121.4%

## OC[C@@H](O)[C@@H](O)[C@H](O)[C@H](O)CO [D-Mannitol]
  Relative cell viability (%): 114.9%

## CCCCCCOC(=O)NC(=N)c1ccc(NCc2nc3cc(C(=O)N(CCC(=O)OCC)c4ccccn4)ccc3n2C)cc1 [Dabigatran Etexilate]
  Relative cell viability (%): 102%

## CC(C)(C)c1nc(-c2cccc(NS(=O)(=O)c3c(F)cccc3F)c2F)c(-c2ccnc(N)n2)s1 [Dabrafenib (GSK2118436)]
  Relative cell viability (%): 37.38%

## CN(C)/N=N/c1[nH]cnc1C(N)=O [Dacarbazine]
  Relative cell viability (%): 91.43%

## COc1cc2ncnc(Nc3ccc(F)c(Cl)c3)c2cc1NC(=O)/C=C/CN1CCCCC1 [Dacomitinib (PF299804, PF299)]
  Relative cell viability (%): 11.17%

## CN(C)[C@@H](CCOc1cccc2ccccc12)c1ccccc1 [Dapoxetine HCl]
  Relative cell viability (%): 44.92%

## Cc1nc(Nc2ncc(C(=O)Nc3c(C)cccc3Cl)s2)cc(N2CCN(CCO)CC2)n1 [Dasatinib Monohydrate]
  Relative cell viability (%): 20.09%

## COc1cccc2c1C(=O)c1c(O)c3c(c(O)c1C2=O)C[C@@](O)(C(C)=O)C[C@@H]3O[C@H]1C[C@H](N)[C@H](O)[C@H](C)O1 [Daunorubicin HCl]
  Relative cell viability (%): 12.62%

## CNC(=O)c1ccc(Nc2ncc(C(F)(F)F)c(NCc3nccnc3N(C)S(C)(=O)=O)n2)cc1 [Defactinib (VS-6063, PF-04554878)]
  Relative cell viability (%): 67.52%

## CC(=O)OCC(=O)[C@@]12N=C(C)O[C@@H]1C[C@H]1[C@@H]3CCC4=CC(=O)C=C[C@]4(C)[C@H]3[C@@H](O)C[C@@]12C [Deflazacort]
  Relative cell viability (%): 91.95%
